Results from ChEMBL document CHEMBL1122707, “Pyrroloisoquinoline antidepressants. Potent, enantioselective inhibition of tetrabenazine-induced ptosis and neuronal uptake of norepinephrine, dopamine, and serotonin” (J Med Chem, 1984).

Legend:
Mus musculus [1] = test: Inhibition of tetrabenazine (TBZ)-induced depression of motor activity (MA) in mice (administered ip); format: functional
Mus musculus [2] = test: Inhibition of tetrabenazine (TBZ)-induced ptosis in mice (administered ip); format: functional
[3] = molecular target: Norepinephrine transporter (Rattus norvegicus, UniProt Q9WTR4); test: Inhibition of norepinephrine (NE) into rat brain synaptosomes; format: functional, subcellular
[4] = molecular target: Sodium-dependent dopamine transporter (Rattus norvegicus, UniProt P23977); test: Inhibition of dopamine (DA) uptake into rat brain synaptosomes; format: functional, subcellular
[5] = molecular target: Sodium-dependent serotonin transporter (Rattus norvegicus, UniProt P31652); test: Inhibition of serotonin (5-HT) uptake into rat brain synaptosomes; format: subcellular
Mus musculus [6] = test: Compound was evaluated for the inhibition of tetrabenazine (TBZ)-induced ptosis in mice (administered sc); format: functional
Mus musculus [7] = test: Compound was evaluated for the inhibition of tetrabenazine (TBZ)-induced depression of motor activity (MA) in mice (administered sc); format: functional
[8] = Mus musculus, ip, read-out: ED50

Norepinephrine transporter, sequence (Q9WTR4 whole entry): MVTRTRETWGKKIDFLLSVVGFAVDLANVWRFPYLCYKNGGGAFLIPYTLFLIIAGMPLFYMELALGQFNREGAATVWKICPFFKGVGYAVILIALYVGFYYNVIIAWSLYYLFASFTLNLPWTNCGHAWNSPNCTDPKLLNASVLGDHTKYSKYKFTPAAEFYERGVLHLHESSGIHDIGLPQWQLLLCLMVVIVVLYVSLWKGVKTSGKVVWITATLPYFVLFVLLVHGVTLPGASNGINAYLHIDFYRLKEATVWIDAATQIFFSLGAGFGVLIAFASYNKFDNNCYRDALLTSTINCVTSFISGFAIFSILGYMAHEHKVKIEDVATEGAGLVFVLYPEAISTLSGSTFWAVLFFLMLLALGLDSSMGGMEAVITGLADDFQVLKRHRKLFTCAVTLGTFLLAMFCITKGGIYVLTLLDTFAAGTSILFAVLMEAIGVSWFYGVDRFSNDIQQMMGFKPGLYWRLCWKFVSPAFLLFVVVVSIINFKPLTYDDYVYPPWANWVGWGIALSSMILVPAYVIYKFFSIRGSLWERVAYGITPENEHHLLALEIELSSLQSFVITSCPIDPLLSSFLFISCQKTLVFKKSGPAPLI
Sodium-dependent dopamine transporter, sequence (P23977 whole entry): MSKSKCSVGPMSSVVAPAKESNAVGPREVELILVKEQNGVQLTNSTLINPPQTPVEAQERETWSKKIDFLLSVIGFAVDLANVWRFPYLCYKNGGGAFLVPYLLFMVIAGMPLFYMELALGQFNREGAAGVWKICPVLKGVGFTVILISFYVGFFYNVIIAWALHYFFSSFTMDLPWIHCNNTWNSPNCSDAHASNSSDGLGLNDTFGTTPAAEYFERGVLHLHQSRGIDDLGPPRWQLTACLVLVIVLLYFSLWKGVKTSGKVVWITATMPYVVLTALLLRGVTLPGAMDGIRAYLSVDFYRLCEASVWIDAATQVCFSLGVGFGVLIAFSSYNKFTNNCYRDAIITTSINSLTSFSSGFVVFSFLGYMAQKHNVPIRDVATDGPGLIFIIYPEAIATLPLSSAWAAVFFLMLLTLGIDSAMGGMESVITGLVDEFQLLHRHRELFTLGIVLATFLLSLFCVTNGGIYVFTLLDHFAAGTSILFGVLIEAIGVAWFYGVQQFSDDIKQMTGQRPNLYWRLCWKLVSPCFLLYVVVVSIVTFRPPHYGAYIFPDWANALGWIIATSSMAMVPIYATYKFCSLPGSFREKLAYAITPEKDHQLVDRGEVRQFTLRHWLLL
Sodium-dependent serotonin transporter, sequence (P31652 whole entry): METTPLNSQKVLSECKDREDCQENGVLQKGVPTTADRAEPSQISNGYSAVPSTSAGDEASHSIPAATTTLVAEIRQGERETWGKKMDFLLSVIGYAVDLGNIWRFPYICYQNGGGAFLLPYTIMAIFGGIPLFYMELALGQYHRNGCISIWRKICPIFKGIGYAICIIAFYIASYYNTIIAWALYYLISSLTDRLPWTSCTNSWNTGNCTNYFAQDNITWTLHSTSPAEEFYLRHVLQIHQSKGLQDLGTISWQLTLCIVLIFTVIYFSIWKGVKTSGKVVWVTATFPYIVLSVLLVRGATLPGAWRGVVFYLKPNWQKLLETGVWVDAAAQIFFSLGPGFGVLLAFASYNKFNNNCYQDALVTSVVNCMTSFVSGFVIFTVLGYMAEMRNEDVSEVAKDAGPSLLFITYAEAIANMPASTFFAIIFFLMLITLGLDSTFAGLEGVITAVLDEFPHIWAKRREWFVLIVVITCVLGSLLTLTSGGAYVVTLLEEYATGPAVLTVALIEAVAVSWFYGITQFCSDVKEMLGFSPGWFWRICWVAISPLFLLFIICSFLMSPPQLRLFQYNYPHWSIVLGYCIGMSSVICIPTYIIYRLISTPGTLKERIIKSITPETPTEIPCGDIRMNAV

Compound	ED50 (Mus musculus [1]) [mg/kg]	ED50 (Mus musculus [2]; [8]) [mg/kg]	Ki [3] [nM]	Ki [4] [nM]	Ki [5] [nM]	ED50 (Mus musculus [2]) [mg/kg]	ED50 (Mus musculus [6]) [mg/kg]	ED50 (Mus musculus [7]) [mg/kg]
c1ccc([C@H]2CN3CCC[C@H]3c3ccccc32)cc1	0.34	0.07						
Clc1ccc(C2CN3CCC[C@H]3c3ccccc32)cc1Cl (stereo not given in full)	0.39	0.14	0.68	0.99				
c1ccc(C2CN3CCCCC3c3ccccc32)cc1 (stereo not given)	> 30	> 30	20	> 500				
Br.Nc1ccc([C@@H]2CN3CCC[C@H]3c3ccccc32)cc1	1.4	0.4	10	30				
Br.Nc1ccc([C@H]2CN3CCC[C@H]3c3ccccc32)cc1	> 1	0.02	0.2	0.86				
Cl.FC(F)(F)c1cccc([C@H]2CN3CCC[C@H]3c3ccccc32)c1	1.2	0.43	0.95	54.3				
Cl.FC(F)(F)c1cccc([C@@H]2CN3CCC[C@H]3c3ccccc32)c1	> 60	> 60	> 100	> 1000				
CSc1ccc([C@@H]2CN3CCC[C@H]3c3ccccc32)cc1	> 30	0.4		36.8				
Br.O=[N+]([O-])c1ccc(C2CN3CCC[C@H]3c3ccccc32)cc1 (stereo not given in full)	0.34	0.14	3.4	94.2				
Br.c1ccc(C2CN3CCCCCC3c3ccccc32)cc1 (stereo not given)	30	> 30	100	> 100	> 5000			
Br.COc1ccc(C2CN3CCC[C@H]3c3ccccc32)cc1 (stereo not given in full)	0.27	0.03	0.79	5.2				
Br.Oc1ccc(C2CN3CCC[C@H]3c3ccccc32)cc1 (stereo not given in full)	0.4	0.09	0.74	5.1				
Br.Clc1ccc(C2CN3CCC[C@H]3c3ccccc32)cc1 (stereo not given in full)	0.55	0.34						
Br.Oc1ccc(C2CN3CCC[C@H]3c3ccccc32)cc1O (stereo not given in full)	0.19	0.11	0.81	10.1				
Br.COc1ccc(C2CN3CCC[C@H]3c3ccccc32)cc1OC (stereo not given in full)	0.45	0.11	3.4	71.9				
Cl.c1ccc(C2CN3CCC[C@H]3c3ccccc32)cc1 (single isomer, unassigned; (+))	0.59	0.05		4.4				
Cl.c1ccc([C@H]2CN3CCC[C@H]3c3ccccc32)cc1 (stereo in doubt; 5a)				160		>30		
Cl.c1ccc([C@H]2CN3CCC[C@H]3c3ccccc32)cc1 (stereo in doubt; (-)-5b)	> 30			1340		8.3		
CNCCCN1c2ccccc2CCc2ccccc21.Cl [DESIPRAMINE HYDROCHLORIDE]							0.05	0.07
COc1ccc2c(c1)CN(C)CC2c1ccc(Cl)c(Cl)c1 (stereo not given) [DICLOFENSINE]			4.4	14.6				
CN(C)CCCN1c2ccccc2CCc2ccccc21.Cl [IMIPRAMINE HYDROCHLORIDE]	0.58	0.98						
CN1CCN2c3ccccc3Cc3ccccc3C2C1 (stereo not given) [MIANSERIN]	> 30	9.7	26	> 10000				
CN1Cc2c(N)cccc2C(c2ccccc2)C1 (stereo not given) [NOMIFENSINE]			3.8					
